Source: PubChem BioAssay AID1259427 (Fisher Drug Discovery Resource Center, 2018)
Calls of active or inactive are those of the source.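 How the source made its calls: active means EC50 at or below a set limit, with no effect in the paired counter-screen assay; inactive means the rest.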

Target: Aedes aegypti neuropeptide Y-like receptor 7 (NPYLR7)
Assay: agonists of mosquito NPYLR7 receptor, confirmation, cell-based, Aedes aegypti, hit validation, mosquito biting behavior (AID 1259427);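 further: potency of agonists that activate the receptor and raise the calcium signal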
Settings: HEK293T NPYLR7/Galpha15/GCaMP6s, calcium fluorescence

| Compound | EC50 |
| --- | --- |
| CCC(CO)[n+]1c(C)cc(C=C2Sc3ccccc3N2Cc2ccccc2)cc1C (stereo not drawn) | 9.8 µM |
| O=C1c2cccc3c(NCC(O)CCl)ccc(c23)C(=O)N1c1ccccc1 (stereo not drawn) | < 0.039 µM (inactive) |
| O=C1NC(=O)C2=Cc3ccc(O)cc3OC2(O)N1 (stereo not drawn) | inactive |
| COC(=O)c1cc(N)c(/C=C/c2cccs2)s1 | inactive |
| C(=Cc1ccccc1)C=NNc1ncnc2ccccc12 | > 20 µM (inactive) |
| Cc1cc(O)c(CN2CCN(C)CC2)c2c1C(=O)/C(=C/c1cccs1)O2 | > 20 µM (inactive) |
| COc1cc(C=C(C#N)C(=O)OC(C)C)cc(Cl)c1O | > 20 µM (inactive) |
| N#CC(C#N)=C1C=C2C=C(N3CCCC3)CCC2CC1 (stereo not drawn) | < 0.039 µM (inactive) |
| COc1ccc(NC(=O)C2C=CCN2)cc1NC(=O)c1ccco1 (stereo not drawn) | > 20 µM (inactive) |
| CC(C)COCC(O)CN(Cc1cccn1C)CC1CCCO1 (stereo not drawn) | > 20 µM (inactive) |
| COc1cc(C=C2SC(=S)NC2=O)cc(Br)c1O | inactive |
| CNC[C@H](O)c1ccc(O)c(O)c1 | inactive |
| C=CCN1C=CC(=CC=C(C#N)C#N)C=C1 | inactive |
| COc1cc(OC)c(C2=NOC3(CC(=O)N(c4cccc(Cl)c4)C3=O)C2)cc1OC (stereo not drawn) | > 20 µM (inactive) |
| COCCCNCc1c(-c2ccc(F)cc2)noc1N1CCOCC1 | > 20 µM (inactive) |
| CCN1CCN(C2=CC3=CC(=C(C#N)C#N)CCC3CC2)CC1 (stereo not drawn) | < 0.039 µM (inactive) |
| Cc1[nH]c(/C=C2\C(=O)Nc3ccccc32)c(C)c1CCC(=O)O | < 0.039 µM (inactive) |
| CCc1nc(N=C(N)N)nc2cc(C)ccc12 | 7.66 µM |
| Cc1ccc(Cl)c(Oc2cc(N3CCN(C(=O)c4ccc(Cl)c(Cl)c4)CC3)ncn2)c1 | > 20 µM (inactive) |
| O=C(C1=NN(c2ccccc2)C2C(=O)N(c3ccccc3)C(=O)C12)c1ccccc1 (stereo not drawn) | > 20 µM (inactive) |
| COCCOc1ccc(NC(=O)N(C)C(C)C2(C)CC2)cn1 (stereo not drawn) | > 20 µM (inactive) |
| O=[N+]([O-])c1ccc(-n2nc3ccc4nonc4c3n2)cc1 | > 20 µM (inactive) |
| CCOC(=O)C1=C(C)NC(C)=C(C(=O)OCC)C1c1cc(Cl)ccc1OC(F)F | > 20 µM (inactive) |
| COc1cccc(CNC2CC2)c1OCc1nc(CO)cs1 | > 20 µM (inactive) |
| CCCCN(CC(=O)Nc1c(-c2ccccc2)c(C)nn1-c1ccccc1C)S(=O)(=O)c1ccc(F)cc1 | > 20 µM (inactive) |

| Compound | EC50 |
| --- | --- |
| CC1C(=O)N(c2cccc(F)c2)CCN1C(=O)C1CC1 (stereo not drawn) | > 20 µM (inactive) |
| O=C1OC(c2ccc(Cl)c([N+](=O)[O-])c2)=N/C1=C\c1cc2cc3c4c(c2oc1=O)CCCN4CCC3 | < 0.039 µM (inactive) |
| COc1cc(C(=O)N2CCOC(c3ccccc3)C2)cc(OC)c1C (stereo not drawn) | > 20 µM (inactive) |
| COCCCN(Cc1ccc(C(C)(C)C)cc1)Cc1cccn1Cc1cccc(C)c1 | > 20 µM (inactive) |
| Cn1c(/C(C#N)=C/c2ccc(N3CCOCC3)o2)nc2ccccc21 | 14.9 µM |
| CCOC(=O)C1CCCN(CC(=O)N2N=C(c3ccccc3Cl)CC2c2ccc(Cl)cc2)C1 (stereo not drawn) | > 20 µM (inactive) |
| CCOc1ccc(/C=C2N=C(/C=C/c3ccccc3)OC/2=O)cc1 | > 20 µM (inactive) |
| CCOc1cc(/C=C2\SC(=S)N(NC(=O)c3ccccc3O)C2=O)ccc1O | > 20 µM (inactive) |
| CN(C)c1ccc(/C=C2/SC(=S)N(CC(=O)O)C2=O)cc1Br | inactive |
| CC(=O)NCCc1ccc(O)c(O)c1 | inactive |
| CN1C(=S)N(CCCN2CCOCC2)C(=O)/C1=C/c1ccc(N(C)C)cc1 | > 20 µM (inactive) |
| O=C(CNCc1ccccc1)N1CC(=O)N(c2cccc(Cl)c2)C1 | > 20 µM (inactive) |
| CCN(CC)c1ccc(/C=C2/SC(=S)N(CC(=O)O)C2=O)cc1 | inactive |
| COc1ccc(S(=O)(=O)NCC2CCCN(C(=O)CSc3ccccc3)C2)cc1 (stereo not drawn) | 11.3 µM |
| O=C1/C(=C/c2cccc(F)c2)Oc2c1ccc(O)c2CN1CCN(CCO)CC1 | > 20 µM (inactive) |
| O=C(c1snc2c(=O)n(Cc3ccccc3)c(=O)[nH]c12)N1CCSCC1 | > 20 µM (inactive) |
| CN(Cc1cnc2ccccc2n1)C(=O)C1CC2(CCNCC2)CN1 (stereo not drawn) | > 20 µM (inactive) |
| Cc1nc(=O)c(-c2ccccc2)c(C)n1-c1ccccc1O | > 20 µM (inactive) |
| CCNC(=O)[C@H]1O[C@@H](n2cnc3c(N)ncnc32)C(O)[C@H]1O (stereo partly drawn) | inactive |
| CC(C)C(=O)Nc1sc2c(c1-c1nc3ccccc3s1)CCN(C)C2 | > 20 µM (inactive) |
| COc1ccc2c(c1)OCC(C=C(C#N)S(=O)(=O)c1ccc(Br)cc1)=C2 | > 20 µM (inactive) |
| COc1cc(OC)cc(C(=O)N2CCN(C(C(=O)Nc3ccc(NC(C)=O)cc3)C3CCCC3)CC2)c1 (stereo not drawn) | > 20 µM (inactive) |
| COc1ccc(C(=O)C=Cc2cc(OC)c(O)c(OC)c2)cc1F | > 20 µM (inactive) |
| O=C(COc1ccccc1)N1CCCC(CNS(=O)(=O)c2cccs2)C1 (stereo not drawn) | 13.2 µM |
| COc1cc(C=CC(=O)c2ccc3c(c2)OCCO3)cc(Br)c1O | inactive |

| Compound | EC50 |
| --- | --- |
| N#CC(C#N)=C1C=C2C=C(N3CCc4ccccc4C3)CCC2CC1 (stereo not drawn) | > 20 µM (inactive) |
| Cc1cccc(Oc2nc3ccccn3c(=O)c2/C=C(\C#N)c2nc3ccccc3s2)c1 | > 20 µM (inactive) |
| COc1cc(OC)c(OC)cc1/C=C1/SC(=S)N(CC(=O)O)C1=O | inactive |
| CNCC(O)c1ccc(O)c(O)c1 (stereo not drawn) | inactive |
| CCC1CN(C(=O)c2cc(C(C)C)on2)CCC(=O)N1Cc1ccccc1 (stereo not drawn) | > 20 µM (inactive) |
| NC(=S)N/N=c1\oc2cc(O)ccc2cc1-c1nc2ccccc2[nH]1 | inactive |
| CC1=NCCc2c1[nH]c1cc(O)ccc21 | inactive |
| CSc1ccc(C2CC(c3cccs3)=Nc3ncnn32)cc1 (stereo not drawn) | inactive |
| CC1CC2(C)Oc3ccccc3C3OCC1(CO)C(C)C32 (stereo not drawn) | > 20 µM (inactive) |
| COc1ccc(CC2c3cc(OC)c(OC)cc3CC[N+]2(C)CCC(=O)OCCCCCOC(=O)CC[N+]2(C)CCc3cc(OC)c(OC)cc3C2Cc2ccc(OC)c(OC)c2)cc1OC (stereo not drawn) | 3.55 µM |
| O=C(O)CCn1c(O)c(C=C2C=Nc3ccccc32)sc1=S | > 20 µM (inactive) |
| Clc1ccc(-c2noc3c2CN(CCn2cc(Cl)cn2)CC3)cc1 | > 20 µM (inactive) |
| CC(C)N=c1c([N+](=O)[O-])nn(-c2ccc(Cl)cc2)n1O | > 20 µM (inactive) |
| CC(C(=O)O)N1C(=O)/C(=C\c2ccc(O)cc2)SC1=S (stereo not drawn) | > 20 µM (inactive) |
| NC(=O)CN1c2cccc3cccc(c23)S1(=O)=O | > 20 µM (inactive) |
| Cc1nc(Sc2nnc3ccccn23)c2c3c(sc2n1)CCCC3 | > 20 µM (inactive) |
| O=C(O)c1ccccc1-c1c2cc(Br)c(=O)cc-2oc2[c]([Hg])c(O)c(Br)cc12 | < 0.039 µM (inactive) |
| N#CC(C#N)=C1C=C2C=C(N3CCCCCC3)CCC2CC1 (stereo not drawn) | < 0.039 µM (inactive) |
| N#C/C(=C/c1ccc(N2CCCCC2)o1)c1cccc(F)c1 | > 20 µM (inactive) |
| O=C1c2ccccc2C(=O)C1c1ccnc2ccccc12 | > 20 µM (inactive) |
| C[C@@H](NC(=O)CN1Cc2ccc(N3CCOCC3)nc2C1=O)c1ccccc1 | > 20 µM (inactive) |
| CS(=O)(=O)c1ccc(-c2cccc3c2OC(CNC(=O)c2cc[n+]([O-])cc2)C3)cc1 (stereo not drawn) | 17.1 µM |
| CC(C)NCC(O)c1ccc(O)c(O)c1 (stereo not drawn) | > 20 µM (inactive) |
